Data on four compounds can be found in PubChem BioAssay (NCI).

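Exposure lasted 48 hours, with cells grown in 96-well plates and compounds tested at five concentrations. TGI: concentration producing complete growth inhibition.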

The first test deals with OVCAR-3 ovarian. The experiment in a line: NCI anticancer screen, dose series, 48 h.
Take `COC1=CC(=O)C(C2CC(=O)c3c(O)cc(O)cc3O2)=CC1=O` (stereo not drawn): the TGI is 39.9 µM.
Still for that read-out and setting: to `N=C(N)SCc1ccc2c(c1)Sc1ccccc1O2` belongs 16.9 µM.
`N#CC(C#N)=CNC(N)=S` showed a TGI greater than 100 µM.
Consider `N=Nc1c(OC(=O)Nc2cccc(Cl)c2)[nH]c2ccccc12`, for which the TGI was 6.6 µM.

For the next test, the system named is ACHN renal. Kind of test: NCI anticancer screen, dose series, 48 h.
With `COC1=CC(=O)C(C2CC(=O)c3c(O)cc(O)cc3O2)=CC1=O` (stereo not drawn), the TGI stood at 29.7 µM.
Regarding `N=C(N)SCc1ccc2c(c1)Sc1ccccc1O2`, the TGI worked out at 16.9 µM.
The same measure, in the same setting: under `N#CC(C#N)=CNC(N)=S` stands greater than 100 µM; under `N=Nc1c(OC(=O)Nc2cccc(Cl)c2)[nH]c2ccccc12`, 20.3 µM.

Another test deals with HOP-92 NSCLC. Kind of test: NCI anticancer screen, dose series, 48 h.
On to `COC1=CC(=O)C(C2CC(=O)c3c(O)cc(O)cc3O2)=CC1=O` (stereo not drawn), for which the TGI came out at 17.6 µM.
The compound `N=C(N)SCc1ccc2c(c1)Sc1ccccc1O2` gave a TGI of 26.8 µM.
As for `N#CC(C#N)=CNC(N)=S`, the TGI is greater than 100 µM.
Compound `N=Nc1c(OC(=O)Nc2cccc(Cl)c2)[nH]c2ccccc12` registered a TGI of 18.1 µM.

A further test relates to IGROV1 ovarian. The experiment in a line: NCI anticancer screen, dose series, 48 h.
The compound `COC1=CC(=O)C(C2CC(=O)c3c(O)cc(O)cc3O2)=CC1=O` (stereo not drawn) displayed a TGI of 33.6 µM.
Still for that read-out and setting: under `N=C(N)SCc1ccc2c(c1)Sc1ccccc1O2` stands 11.9 µM; under `N#CC(C#N)=CNC(N)=S`, greater than 100 µM.
Consider `N=Nc1c(OC(=O)Nc2cccc(Cl)c2)[nH]c2ccccc12`, for which the TGI amounted to 21.4 µM.

In a further test the test system is OVCAR-8 ovarian. Kind of test: NCI anticancer screen, dose series, 48 h.
In the case of `COC1=CC(=O)C(C2CC(=O)c3c(O)cc(O)cc3O2)=CC1=O` (stereo not drawn), the TGI turned out to be 59.7 µM.
On to `N=C(N)SCc1ccc2c(c1)Sc1ccccc1O2`, for which the TGI came to 32.5 µM.
Regarding `N#CC(C#N)=CNC(N)=S`, the TGI is greater than 100 µM.
With `N=Nc1c(OC(=O)Nc2cccc(Cl)c2)[nH]c2ccccc12`, the TGI was 20 µM.

The test system of a further test is MDA-MB-435. Kind of test: NCI anticancer screen, dose series, 48 h.
Compound `COC1=CC(=O)C(C2CC(=O)c3c(O)cc(O)cc3O2)=CC1=O` (stereo not drawn) showed a TGI of 31.6 µM.
On the same count and under the same terms, to `N=C(N)SCc1ccc2c(c1)Sc1ccccc1O2` belongs 19.1 µM; to `N#CC(C#N)=CNC(N)=S`, greater than 100 µM.
Regarding `N=Nc1c(OC(=O)Nc2cccc(Cl)c2)[nH]c2ccccc12`, the TGI was found to be 21.3 µM.

The subject of another test is HS 578T breast. The experiment in a line: NCI anticancer screen, dose series, 48 h.
The compound `COC1=CC(=O)C(C2CC(=O)c3c(O)cc(O)cc3O2)=CC1=O` (stereo not drawn) gave a TGI of 83 µM.
With `N=C(N)SCc1ccc2c(c1)Sc1ccccc1O2`, the TGI turned out to be 16.5 µM.
The compound `N#CC(C#N)=CNC(N)=S` gave a TGI greater than 100 µM.
In turn, `N=Nc1c(OC(=O)Nc2cccc(Cl)c2)[nH]c2ccccc12` returned a TGI of 40 µM.

A further test relates to MCF7 breast. The experiment in a line: NCI anticancer screen, dose series, 48 h.
With `COC1=CC(=O)C(C2CC(=O)c3c(O)cc(O)cc3O2)=CC1=O` (stereo not drawn), the TGI worked out at 42.3 µM.
On to `N=C(N)SCc1ccc2c(c1)Sc1ccccc1O2`, for which the TGI was 13.5 µM.
With `N#CC(C#N)=CNC(N)=S`, the TGI is greater than 100 µM.
The compound `N=Nc1c(OC(=O)Nc2cccc(Cl)c2)[nH]c2ccccc12` showed a TGI of 23.5 µM.

Another test has as its system HT29 colon. The experiment in a line: NCI anticancer screen, dose series, 48 h.
In turn, `COC1=CC(=O)C(C2CC(=O)c3c(O)cc(O)cc3O2)=CC1=O` (stereo not drawn) had a TGI greater than 61.3 µM.
With `N=C(N)SCc1ccc2c(c1)Sc1ccccc1O2`, the TGI amounted to 8.54 µM.
Same read-out and setting: under `N#CC(C#N)=CNC(N)=S` stands greater than 100 µM; under `N=Nc1c(OC(=O)Nc2cccc(Cl)c2)[nH]c2ccccc12`, 17.7 µM.

For the next test, the system named is PC-3 prostate. The experiment in a line: NCI anticancer screen, dose series, 48 h.
Regarding `COC1=CC(=O)C(C2CC(=O)c3c(O)cc(O)cc3O2)=CC1=O` (stereo not drawn), the TGI turned out to be 31.1 µM.
In turn, `N=C(N)SCc1ccc2c(c1)Sc1ccccc1O2` had a TGI of 16.5 µM.
Regarding `N#CC(C#N)=CNC(N)=S`, the TGI is greater than 100 µM.
Same read-out and setting: to `N=Nc1c(OC(=O)Nc2cccc(Cl)c2)[nH]c2ccccc12` belongs 14.6 µM.

A further test concerns SK-MEL-28 melanoma. The experiment in a line: NCI anticancer screen, dose series, 48 h.
Compound `COC1=CC(=O)C(C2CC(=O)c3c(O)cc(O)cc3O2)=CC1=O` (stereo not drawn) displayed a TGI of 31.4 µM.
`N=C(N)SCc1ccc2c(c1)Sc1ccccc1O2` registered a TGI of 38.7 µM.
For `N#CC(C#N)=CNC(N)=S`, the TGI was greater than 100 µM.
For the compound `N=Nc1c(OC(=O)Nc2cccc(Cl)c2)[nH]c2ccccc12`, the TGI worked out at 28 µM.

The subject of the next test is SR leukemia. The experiment in a line: NCI anticancer screen, dose series, 48 h.
Consider `COC1=CC(=O)C(C2CC(=O)c3c(O)cc(O)cc3O2)=CC1=O` (stereo not drawn), for which the TGI is 15.6 µM.
Same read-out and setting: to `N=C(N)SCc1ccc2c(c1)Sc1ccccc1O2` belongs greater than 31.6 µM; to `N#CC(C#N)=CNC(N)=S`, greater than 100 µM; to `N=Nc1c(OC(=O)Nc2cccc(Cl)c2)[nH]c2ccccc12`, 44.5 µM.

The next test relates to UO-31 renal. Kind of test: NCI anticancer screen, dose series, 48 h.
`COC1=CC(=O)C(C2CC(=O)c3c(O)cc(O)cc3O2)=CC1=O` (stereo not drawn) showed a TGI of 32.2 µM.
In turn, `N=C(N)SCc1ccc2c(c1)Sc1ccccc1O2` had a TGI of 10.6 µM.
On the same count and under the same terms, to `N=Nc1c(OC(=O)Nc2cccc(Cl)c2)[nH]c2ccccc12` belongs 13.1 µM.

The test system of a further test is A549 NSCLC. Kind of test: NCI anticancer screen, dose series, 48 h.
For the compound `COC1=CC(=O)C(C2CC(=O)c3c(O)cc(O)cc3O2)=CC1=O` (stereo not drawn), the TGI was greater than 72.6 µM.
`N=C(N)SCc1ccc2c(c1)Sc1ccccc1O2` yielded a TGI of 23 µM.
As to `N#CC(C#N)=CNC(N)=S`, the TGI was greater than 100 µM.
With `N=Nc1c(OC(=O)Nc2cccc(Cl)c2)[nH]c2ccccc12`, the TGI came out at 18.7 µM.

A further test deals with RXF 393 renal. Kind of test: NCI anticancer screen, dose series, 48 h.
Compound `COC1=CC(=O)C(C2CC(=O)c3c(O)cc(O)cc3O2)=CC1=O` (stereo not drawn) showed a TGI of 34.8 µM.
The same measure, in the same setting: under `N=C(N)SCc1ccc2c(c1)Sc1ccccc1O2` stands 14 µM; under `N#CC(C#N)=CNC(N)=S`, greater than 100 µM.
